Literature values, collected in patent US20130345257A1, “COMPOSITION FOR LUPUS NEPHRITIS AND METHODS OF MAKING AND USING THE SAME” (The Regents of the University of California, priority 2012, published 2013).

Experiments:
[1] = system: human lupus; conditions: phase 1b trial; cited from earlier work
[2] = system: murine SLE model; conditions: mouse, in vivo; cited from earlier work
[3] = pulled out of a clinical trial; cited from earlier work

SMILES | Adverse events profile [1] | Efficacy in murine SLE model [2] | Toxicity in clinical trial [3]
CCc1cccc2c1c(O)c(C(=O)N(CC)c1ccccc1)c(=O)n2C [paquinimod] | favorable adverse events profile | effective | –
CN(C(=O)c1c(O)c2ccccc2n(C)c1=O)c1ccccc1 [roquinimex] | – | – | serious cardiovascular toxicities
